Source: patent US20060241083A1, “Novel heteroaryl phosphonates as cardioprotective agents” (Medicure International Inc., priority 2003, published 2006)

Test system: Male Wistar rats
Assay: Ischemia reperfusion: infarct size after LAD occlusion (25 min) and reperfusion (2 h) in anesthetised rats
Type: in vivo, rat
Conditions: 32 mg/kg i.v. bolus 5 min prior to ischemia; 25 min LAD occlusion, 2 h reperfusion; vs vehicle 56±3% of the AAR; P=0.047, unpaired Students t-test; FIG. 2
Protocol: Male Wistar rats (200-300 g, Tuck, Rayleigh, Essex, U.K.) were anesthetised with thiopentone sodium (Intraval®, 120 mg/kg i.p.; Rhone-Merrieux, Essex, U.K.). The rats were tracheotomised, intubated and ventilated with a Harvard ventilator (70 strokes/min, tidal volume: 8-10 mL/kg, inspiratory oxygen concentration: 30%). Body temperature was maintained at 38±1° C. The right carotid artery was cannulated and connected to a pressure transducer (MLT 1050, AD Instruments Ltd, Hastings, UK) to monitor mean arterial blood pressure (MAP) and heart rate (HR), which were continuously recorded on a data acquisition system such as Powerlab® Version 4.0.4, AD Instruments, Hastings, UK. The right jugular vein was cannulated for drug administration and the administration of Evans Blue dye (at the end of the experiment). A lateral thoracotomy was performed and the heart was suspended in a temporary pericardial cradle. A snare occluder was placed around the left anterior descending coronary artery (LAD). After completion of the surgical procedure the animals were allowed to stabilise for 30 min before LAD ligation. Five minutes prior to the onset of myocardial ischemia, a bolus injection (i.v.) of either vehicle or phosphonate was administered. The coronary artery was occluded at time 0 by tightening of the occluder. […]

Cc1nc(-c2ccccc2)c(C(F)P(=O)(O)O)c(CO)c1O (stereo not shown) [Compound 38, [Fluoro-(5-hydroxy-4-hydroxymethyl-6-methyl-2-phenyl-pyridin-3-yl)-methyl]-phosphonic acid]
myocardial infarct size (as a percentage of the weight of the AAR): reduced myocardial infarct size
